Among the data in patent publication US20210084902A1, “FUNGICIDAL MIXTURE COMPRISING SUBSTITUTED 3-PHENYL-5-(TRIFLUOROMETHYL)-1,2,4-OXADIAZOLES” (BASF SE, priority 2017, published 2021) are Observed efficacy and inhibition of growth values, retold here.

Read-outs that look alike come from different tables or passages of the source.

Format in all cases: cell-based
The subject of experiment [1] is Colletotrichum orbiculare. Nature of the experiment: Fungicidal activity against Colletotrichum orbiculare in the microtiterplate test.
The test system of experiment [2] is Pyricularia oryzae. As to the kind of experiment: microbe, parasite or virus in culture. The conditions noted are these: for Observed efficacy: single compound.
The subject of experiment [3] is Septoria tritici. Nature of the experiment: Fungicidal activity against Septoria tritici, micro titer plate (MTP) test. Particulars: for inhibition of growth at […] / inhibition of growth at 1 ppm / Observed efficacy / inhibition of growth at 4 ppm: Table V.4, component B alone.
The test system of experiment [4] is Botrytis cinerea. As to the kind of experiment: Fungicidal activity against Botrytis cinerea, micro titer plate (MTP) test. The conditions noted are these: component B alone; for inhibition of growth at […] / inhibition of growth at 1 ppm: Botrytis cinerea, 168 h, read-out: Observed efficacy; for inhibition of growth at 1 ppm / Observed efficacy: 1 ppm.
[5] abbreviates: Pyricularia oryzae, 168 h, read-out: Observed efficacy.
The mark [6] stands for this setting: Colletotrichum orbiculare, 0.063 ppm, read-out: Observed efficacy.
The mark [7] stands for this setting: Colletotrichum orbiculare, 0.25 ppm, read-out: Observed efficacy.
Where [8] appears, read: Zymoseptoria tritici, 168 h, 0.016 ppm, read-out: Observed efficacy.
Where [9] appears, read: Zymoseptoria tritici, 168 h, 0.063 ppm, read-out: Observed efficacy.
[10] abbreviates: Colletotrichum orbiculare, 1 ppm, read-out: Observed efficacy.
[11] abbreviates: Zymoseptoria tritici, 168 h, 0.25 ppm, read-out: Observed efficacy.
The mark [12] stands for this setting: Zymoseptoria tritici, 168 h, 1 ppm, read-out: Observed efficacy.
Where [13] appears, read: Colletotrichum orbiculare, read-out: Observed efficacy.
The mark [14] stands for this setting: Zymoseptoria tritici, 168 h, 4 ppm, read-out: Observed efficacy.
[15] abbreviates: Colletotrichum orbiculare, 0.016 ppm, read-out: Observed efficacy.

The compound `Cn1cc(C(=O)Nc2cccc3c2[C@@H]2CC[C@H]3C2=C(Cl)Cl)c(C(F)F)n1` (racemic) [Benzovindiflupyr, benzovindiflupyr] showed an Observed efficacy in experiment [1] (0.004 ppm) of 2.
For the compound `Cc1cccc(-n2nnn(C)c2=O)c1COc1ccn(-c2ccc(Cl)cc2)n1` [A.1.25, 1-[2-[[1-(4-chlorophenyl)pyrazol-3-yl]oxymethyl]-3-methyl-phenyl]-4-methyl-tetrazol-5-one], the inhibition of growth at 0.004 ppm in experiment [2] (setting [5]) was 4%; in experiment [3] (Zymoseptoria tritici, 168 h, read-out: Observed efficacy), 3%.
On to `COc1ccnc(C(=O)NC2COC(=O)[C@H](Cc3ccccc3)[C@@H](OC(=O)C(C)C)[C@H](C)OC2=O)c1O` (stereo partly drawn) [A.2.3, [(6S,7R,8R)-8-benzyl-3-[(3-hydroxy-4-methoxy-pyridine-2-carbonyl)amino]-6-methyl-4,9-dioxo-1,5-dioxonan-7-yl] 2-methylpropanoate], for which the inhibition of growth at […] turned out to be 0% in experiment [4] (0.25 ppm), 47% in experiment [1] (setting [6]), 77% in experiment [1] (setting [7]) and 52% in experiment [3] (setting [8]). The inhibition of growth at 1 ppm in experiment [4] is 11%.
For the compound `CCC(=O)OCOc1c(OC)ccnc1C(=O)NC1COC(=O)[C@H](Cc2ccccc2)[C@@H](OC(=O)C(C)C)[C@H](C)OC1=O` (stereo partly drawn) [A.2.5, [(6S,7R,8R)-8-benzyl-3-[[4-methoxy-3-(propanoyloxymethoxy)pyridine-2-carbonyl]amino]-6-methyl-4,9-dioxo-1,5-dioxonan-7-yl] 2-methylpropanoate], the inhibition of growth at 1 ppm in experiment [4] was determined as 6%. In addition, the inhibition of growth at […] came to 72% in experiment [1] (setting [7]) and 33% in experiment [3] (setting [9]).
As for `Cc1nn(C)cc1C(=O)Nc1cccc2c1C(C)CC2(C)C` (centres unmarked) [A.3.24, 1,3-dimethyl-N-(1,1,3-trimethylindan-4-yl)pyrazole-4-carboxamide], the values for the inhibition of growth at […] in experiment [4] (0.25 ppm), in experiment [1] (setting [7]) and in experiment [3] (setting [11]) were 41%, 3% and 25%, respectively. Further, the inhibition of growth at 1 ppm in experiment [1] (setting [10]) came to 12%; in experiment [3] (setting [12]), 76%.
For `CC1CC(C)(C)c2cccc(NC(=O)c3cccnc3C(F)F)c21` (centres unmarked) [A.3.32, 2-(difluoromethyl)-N-(1,1,3-trimethyl-indan-4-yl)pyridine-3-carboxamide], the inhibition of growth at […] in experiment [4] (0.25 ppm) was found to be 32%; in experiment [3] (setting [11]), 22%. Moreover, the values for the inhibition of growth at 1 ppm in experiment [1] (setting [10]) and in experiment [3] (setting [12]) were 15% and 70%, respectively.
Turning to `CC[C@H]1CC(C)(C)c2cccc(NC(=O)c3cccnc3C(F)F)c21` [A.3.34, 2-(difluoromethyl)-N-[(3S)3-ethyl-1,1-dimethyl-indan-4-yl]pyridine-3-carboxamide], the inhibition of growth at […] came out at 1% in experiment [4] (0.25 ppm) and 17% in experiment [3] (setting [11]). Moreover, the values for the inhibition of growth at 1 ppm in experiment [4] and in experiment [1] (setting [10]) were 51% and 14%, respectively.
With `CCCCCCCCc1c(CC)nc2ncnn2c1N` [Ametoctradin, ametoctradin], the results for the Observed efficacy in experiment [1] (63 ppm), in experiment [2] (16 ppm) and in experiment [2] (63 ppm) were 14, 8 and 13, respectively.
Take `CO/C=C(/C(=O)OC)c1ccccc1Oc1cc(Oc2ccccc2C#N)ncn1` [Azoxystrobin, azoxystrobin]: the Observed efficacy in experiment [1] (0.004 ppm) is on record as 1.
As for `COC(=O)C(C)N(C(=O)Cc1ccccc1)c1c(C)cccc1C` (centres unmarked) [Benalaxyl, benalaxyl], the inhibition of growth at 4 ppm in experiment [1] (setting [13]) worked out at 13%. In experiment [2] (setting [5]), the inhibition of growth at 1 ppm worked out at 2% and the inhibition of growth at 4 ppm stood at 8%.
As to `COC(=O)Nc1nc2ccccc2[nH]1` [Carbendazim, carbendazim], the inhibition of growth at […] in experiment [1] (setting [6]) was 60%.
With `O=C(Cc1ccccc1)N/C(=N\OCC1CC1)c1c(C(F)(F)F)ccc(F)c1F` [Cyflufenamid, cyflufenamid], in experiment [1] (Colletotrichum orbiculare, 16 ppm, read-out: Observed efficacy), the inhibition of growth at 16 ppm stood at 11%.
Consider `CC(C1CC1)C(O)(Cn1cncn1)c1ccc(Cl)cc1` (centres unmarked) [Cyproconazol, cyproconazole], for which the inhibition of growth at 4 ppm in experiment [1] (setting [13]) stood at 4%.
On to `CNC(=O)/C(=N/OC)c1ccccc1COc1cc(C)ccc1C` [Dimoxystrobin, dimoxystrobin], for which the values for the Observed efficacy in experiment [4] and in experiment [1] (1 ppm) were 14% and 71, respectively.
For the compound `N#Cc1sc2c(=O)c3ccccc3c(=O)c=2sc1C#N` [Dithianon, dithianon], the inhibition of growth at […] in experiment [1] (setting [6]) turned out to be 21%.
As for `CC1CC(C)(C)c2c(F)ccc(NC(=O)c3cn(C)nc3C(F)F)c21` (centres unmarked) [Fluindapyr, 3-(difluoromethyl)-N-(7-fluoro-1,1,3-trimethyl-indan-4-yl)-1-methyl-pyrazole-4-carboxamide], the inhibition of growth at […] in experiment [4] (0.25 ppm) and in experiment [3] (setting [11]) was 21% throughout. Further, the inhibition of growth at 1 ppm is 12% in experiment [1] (setting [10]) and 58% in experiment [3] (setting [12]).
As to `O=C(NCCc1ncc(C(F)(F)F)cc1Cl)c1ccccc1C(F)(F)F` [Fluopyram, fluopyram], the inhibition of growth at […] in experiment [1] (setting [7]) came out at 15%; in experiment [3] (setting [9]) it was 13%; in experiment [3] (setting [11]) it was 33%.
As for `O=c1c2cc(F)ccc2nc(-n2cncn2)n1-c1ccc(Cl)cc1Cl` [Fluquinconazol, fluquinconazole], the inhibition of growth at […] in experiment [1] (setting [6]) was 3%. Moreover, in experiment [1] (setting [10]), the inhibition of growth at 1 ppm is 12%.
In turn, `Cn1cc(C(=O)Nc2ccccc2-c2cc(F)c(F)c(F)c2)c(C(F)F)n1` [Fluxapyroxad, fluxapyroxad] returned an Observed efficacy in experiment [1] (0.004 ppm) of 1.
`CCN(C)C=Nc1cc(C)c(Oc2nc(Cc3ccc(Cl)cc3)ns2)cc1C` [K.1.29, N′-[4-[[3-[(4-chorophenyl)methyl]-1,2,4-thiadiazo-5-yl]oxy]-2,5-dimethyl-phenyl]-N-ethyl-N-methyl-formamidine] gave an Observed efficacy in experiment [3] (4 ppm) of 6.
Take `CCN(C)C=Nc1cc(Br)c(OC2Cc3ccccc3C2)nc1C` [K.1.30, N′-(5-bromo-6-indan-2-yloxy-2-methyl-3-pyridyl)-N-ethyl-N-methyl-formamidine]: the inhibition of growth at 1 ppm in experiment [3] (setting [12]) turned out to be 0%. Moreover, in experiment [3] (setting [14]), the inhibition of growth at 4 ppm came to 0%.
Turning to `CCN(C)C=Nc1cc(Br)c(OC(C)c2cc(F)cc(F)c2)nc1C` (centres unmarked) [K.1.31, N′-[5-bromo-6-[1-(3,5-difluorophenyl)ethoxy]-2-methyl-3-pyridyl]-N-ethyl-N-methyl-formamidine], the results for the inhibition of growth at 1 ppm in experiment [4] and in experiment [3] (setting [12]) were 53% and 5%, respectively. For the same compound, the inhibition of growth at 4 ppm in experiment [3] (setting [14]) was determined as 62%.
Turning to `CCCCCOC(=O)Nc1cccc(CO/N=C(/c2ccccc2)c2nnnn2C)n1` [K.1.42, pentyl N-[6-[[(Z)-[(1-methyltetrazol-5-yl)-phenyl-methylene]amino]oxymethyl]-2-pyridyl]carba-mate], the figures for the Observed efficacy in experiment [1] (1 ppm) and in experiment [2] (1 ppm) were 21 and 9, respectively.
Consider `CCCOCC(C)Oc1nc(C)c(N=CN(C)CC)cc1Br` (centres unmarked) [K.1.54, N′-[5-bromo-2-methyl-6-(1-methyl-2-propoxy-ethoxy)-3-pyridyl]-N-ethyl-N-methyl-formamidine], for which the figures for the inhibition of growth at 1 ppm in experiment [2] (setting [5]) and in experiment [3] (setting [12]) were 19% and 3%, respectively.
On to `CO/N=C(/C(=O)OC)c1ccccc1COc1ccccc1C` [Kresoxim-methyl, kresoxim-methyl], for which the inhibition of growth at […] in experiment [1] (setting [7]) was 45%.
As for `CO/N=C(/C(=O)OC)c1ccccc1COc1ccccc1C` [Kresoximmethyl], the inhibition of growth at 1 ppm in experiment [2] (setting [5]) is 58%. The inhibition of growth at […] in experiment [3] (setting [9]) was 41%.
Regarding `CC1(C)CCC(Cc2ccc(Cl)cc2)C1(O)Cn1cncn1` (centres unmarked) [Metconazol, metconazole], in experiment [1] (setting [6]), the inhibition of growth at […] was found to be 11%.
On to `COc1cc(C)c(C(=O)c2c(OC)ccc(Br)c2C)c(OC)c1OC` [Metrafenone, metrafenone], for which the inhibition of growth at 4 ppm in experiment [1] (setting [13]) stood at 14%.
In the case of `CC(C)CC(C)c1sccc1NC(=O)c1cn(C)nc1C(F)(F)F` (centres unmarked) [Penthiopyrad, penthiopyrad], the inhibition of growth at […] in experiment [1] (setting [7]) was 8%; in experiment [3] (setting [9]), 5%; in experiment [3] (setting [11]) it was 28%.
Regarding `CCCC1COC(Cn2cncn2)(c2ccc(Cl)cc2Cl)O1` (centres unmarked) [Propiconazol, propiconazole], the inhibition of growth at […] in experiment [1] (setting [15]) is 3%; in experiment [1] (setting [6]), 3%; in experiment [1] (setting [7]), 15%; in experiment [3] (setting [9]) it was 17%.
As for `OC(Cc1ccccc1Cl)(Cn1nc[nH]c1=S)C1(Cl)CC1` (centres unmarked) [Prothioconazol, prothioconazole], the inhibition of growth at […] in experiment [1] (setting [7]) was 14%.
In experiment [4], `COc1cc(C)c(C(=O)c2c(OC)ncc(Cl)c2C)c(OC)c1OC` [Pyriofenon, pyriofenone] gave an Observed efficacy of 2%.
On to `CC(C)(C)C(O)(CCc1ccc(Cl)cc1)Cn1cncn1` (centres unmarked) [Tebuconazol, tebuconazole], for which the inhibition of growth at […] in experiment [1] (setting [6]) was determined as 2%; in experiment [1] (setting [7]), 14%. Also, the inhibition of growth at 0.0663 ppm in experiment [2] (setting [5]) was determined as 4%.
Consider `CON=C(C(=O)OC)c1ccccc1CON=C(C)c1cccc(C(F)(F)F)c1` [Trifloxystrobin, trifloxystrobin], for which the inhibition of growth at […] turned out to be 3% in experiment [4] (0.063 ppm), 9% in experiment [1] (setting [15]) and 43% in experiment [3] (setting [8]).
In the case of `CC1(C)CCC(=Cc2ccc(Cl)cc2)C1(O)Cn1cncn1` (centres unmarked) [Triticonazol, triticonazole], the inhibition of growth at 1 ppm in experiment [1] (setting [10]) was 11%.
Turning to mancozeb, the Observed efficacy was determined as 24 in experiment [1] (1 ppm) and 9 in experiment [3] (1 ppm).
